From ChEMBL document CHEMBL1147158, “Novel selective neuropeptide Y2 receptor PEGylated peptide agonists reduce food intake and body weight in mice” (J Med Chem, 2007) come the findings set out here.

Assay [1] deals with T1, Neuropeptide Y receptor type 2 (Homo sapiens, UniProt P49146).
T1 sequence (P49146 whole entry): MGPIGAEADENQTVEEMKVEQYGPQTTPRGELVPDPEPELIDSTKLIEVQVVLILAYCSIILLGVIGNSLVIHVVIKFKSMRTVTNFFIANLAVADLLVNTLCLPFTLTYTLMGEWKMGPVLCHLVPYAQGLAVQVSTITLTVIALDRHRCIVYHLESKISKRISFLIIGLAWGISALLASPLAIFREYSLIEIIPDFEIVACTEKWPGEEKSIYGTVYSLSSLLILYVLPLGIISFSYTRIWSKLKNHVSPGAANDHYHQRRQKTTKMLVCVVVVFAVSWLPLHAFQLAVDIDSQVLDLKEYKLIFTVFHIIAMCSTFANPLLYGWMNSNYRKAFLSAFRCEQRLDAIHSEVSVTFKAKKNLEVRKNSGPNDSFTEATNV
The experiment in a line: Agonist activity at human NPY2 by [35S]GTPgammaS […] assay. The class given is functional.

Assay [2] addresses T1, Neuropeptide Y receptor type 2. The experiment in a line: Displacement of [125I]PYY from human NPY2.
Assay [3] deals with T2, Neuropeptide Y receptor type 1 (Homo sapiens, UniProt P25929).
T2 sequence (P25929 whole entry): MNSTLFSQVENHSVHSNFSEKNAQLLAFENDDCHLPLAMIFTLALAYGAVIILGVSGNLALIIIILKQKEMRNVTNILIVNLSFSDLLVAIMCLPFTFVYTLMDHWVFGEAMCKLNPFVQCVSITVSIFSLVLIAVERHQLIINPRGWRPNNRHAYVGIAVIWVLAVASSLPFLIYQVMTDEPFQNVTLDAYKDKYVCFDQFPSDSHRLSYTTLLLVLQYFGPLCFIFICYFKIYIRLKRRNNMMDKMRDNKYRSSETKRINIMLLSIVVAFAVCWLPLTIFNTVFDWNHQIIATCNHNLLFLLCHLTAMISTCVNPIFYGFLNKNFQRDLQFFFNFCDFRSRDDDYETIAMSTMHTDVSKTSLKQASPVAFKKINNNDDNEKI
The experiment in a line: Displacement of [125I]PYY from human NPY1.

Assay [4] has as its target T3, Neuropeptide Y receptor type 5 (Homo sapiens, UniProt Q15761).
T3 sequence (Q15761 whole entry): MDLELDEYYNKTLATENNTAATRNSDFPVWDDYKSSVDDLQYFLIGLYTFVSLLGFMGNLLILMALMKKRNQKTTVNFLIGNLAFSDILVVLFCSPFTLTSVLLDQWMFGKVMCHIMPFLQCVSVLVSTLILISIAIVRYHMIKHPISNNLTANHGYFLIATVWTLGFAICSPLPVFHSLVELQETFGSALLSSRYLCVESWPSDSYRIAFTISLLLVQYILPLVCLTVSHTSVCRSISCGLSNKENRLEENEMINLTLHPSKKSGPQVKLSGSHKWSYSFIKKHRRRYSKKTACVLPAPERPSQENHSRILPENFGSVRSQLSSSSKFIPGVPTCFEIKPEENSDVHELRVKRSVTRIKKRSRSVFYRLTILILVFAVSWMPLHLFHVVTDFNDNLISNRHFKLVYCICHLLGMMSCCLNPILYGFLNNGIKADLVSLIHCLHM
The experiment in a line: Displacement of [125I]PYY from human NPY5.

Residues, ends and D or L forms follow the SMILES beside them. *: point of attachment. X1 = CSc1ncccc1C(=O)*

`CSc1ncccc1C(=O)N[C@@H](CCCNC(=N)N)C(=O)N[C@@H](Cc1cnc[nH]1)C(=O)N[C@@H](Cc1ccc(O)cc1)C(=O)N[C@@H](CC(C)C)C(=O)N[C@@H](CC(N)=O)C(=O)N[C@@H](CC(C)C)C(=O)N[C@@H](CC(C)C)C(=O)N[C@H](C(=O)N[C@@H](CCCNC(=N)N)C(=O)N[C@@H](CCC(N)=O)C(=O)N[C@@H](CCCNC(=N)N)C(=O)N[C@@H](Cc1ccc(O)cc1)C(N)=O)[C@@H](C)O` (X1-RHYLNLLTRQRY-NH2): the EC50 in assay [1] was 4 nM (agonist). The Ki is 11 nM (antagonist) in assay [2], more than 1000 nM in assay [3] and more than 1000 nM in assay [4].
